“And” between values parts separate entries of the source, which are not always exact repeats. Identical values can stand only once.
How the values were obtained:
[1] = tested on: Rat; assay: Tail-Flick test after intrathecal (IT) injection, AI 40%, cut-off 10 sec; type: in vivo; settings: IT nornicotine perchlorate 10 ug/10 ul alone, Day 1, one rat per line, cutoff 10 sec; for Tail-Flick 5 min.: 5 min after injection; for Tail-Flick 10 min.: 10 min after injection; for Tail-Flick 15 min.: 15 min after injection; for Tail-Flick 30 min.: 30 min after injection; for Tail-Flick 45 min.: 45 min after injection; for Tail-Flick 60 min.: 60 min after injection
Procedure: (§1) • Experiment: Tail-Flick—Al at 40%; cut-off 10 sec. • Measurements will be taken at baseline (2×), 5, 10, 15, 30, 45, 60, 90, 120 minutes after drug administration. • Drug Treatment: • […] will be administered in a 10 ul vol., followed by a 10 ul saline flush. • Both R- & S-nornicotine will be tested. • Preparation of Solution: • 10 ug in 10 ul vol. • 100 ug in 100 ul vol. • […]. • 1 mg in 1 ml=10 mg/10 ml vol. • Drug Administration Schedule:
IT—Narnicotine Perchlorate—Day 1 Tail-Flick—IITC Life Science Model 33 Series 8 • Al=40% Cutoff=10 sec. […]

[2] = tested on: Rat; type: in vivo; settings: IT nornicotine perchlorate 10 ug/10 ul, Day 1
Procedure: as §1, with “Schedule: […]” for “Schedule:”

[3] = following peripheral administration of nicotine; cited from earlier work
[4] = following repeated nicotine dosing; cited from earlier work

| Compound | Tail-Flick 5 min. [1] | Tail-Flick 10 min. [1] | Tail-Flick 15 min. [1] | Tail-Flick 30 min. [1] | Tail-Flick 45 min. [1] | Tail-Flick 60 min. [1] | Behavior: side effects [2] | residence in the rat's brain [3] [min] | residence in the rat's brain, times longer than nicotine [3] | accumulation in the brain compared to nicotine [4] |
| --- | --- | --- | --- | --- | --- | --- | --- | --- | --- | --- |
| c1cncc([C@H]2CCCN2)c1 [R, R-nornicotine] | 3.04 s and 5.00 s and 5.47 s and 2.16 s and 6.67 s | 2.23 s and 4.08 s and 2.53 s and 1.80 s and 5.95 s | 3.16 sec and 4.34 sec and 2.82 sec (2×) and 2.86 sec | 2.55 s and 3.13 s and 3.90 s and 2.73 s and 4.14 s | 3.13 s and 2.87 s and 4.26 s and 2.40 s and 4.95 s | 2.19 s and 2.75 s and 3.12 s and 2.63 s and 3.93 s | no noticeable side effects |  |  |  |
| c1cncc([C@@H]2CCCN2)c1 [S, S-nornicotine] | 9.06 s and 8.01 s and 4.40 s and 8.17 s and 3.84 s | 6.39 s and 5.47 s and 5.60 s and 6.21 s and 3.21 s | 4.58 s and 4.33 s and 6.08 s and 3.29 s and 3.56 s | 6.14 s and 3.31 s and 4.85 s and 3.47 s and 4.05 s | 3.95 s and 3.57 s and 2.23 s and 4.60 s and 4.07 s | 4.11 sec and 3.35 sec (2×) and 4.27 sec and 4.26 sec | no obvious side effects |  |  |  |
| CN1CCCC1c1cccnc1 (stereo not drawn) [nicotine] |  |  |  |  |  |  |  | 52 |  |  |
| c1cncc([C@@H]2CCCN2)c1 [nornicotine] |  |  |  |  |  |  |  | 166 | about 3 times | about 4 fold |

Reference: patent publication US8710069B2, “Opioid-nornicotine codrugs combinations for pain management” (University of Kentucky Research Foundation, priority 2008, dated 2014)
